We go through 39 compounds from PubChem BioAssay (NCI).

Common to all, as to experiment: DTP human tumour cell line panel, 48 h
Assay [1] deals with HOP-62 NSCLC.
Assay [2] has as its system SK-MEL-28 melanoma.
The subject of assay [3] is ACHN renal.
Assay [4] deals with 786-0 renal.
Assay [5] relates to RPMI-8226 leukemia.
The test system of assay [6] is NCI-H522 lung.
The test system of assay [7] is NCI/ADR-RES ovarian.

In general, TGI refers to the concentration giving total growth inhibition. A word on the GI50: it is the concentration that inhibits growth by half.

“And” between values parts separate entries of the source, which are not always exact repeats. Equal values may be shown once.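 Exposure lasted 48 hours, with cells grown in 96-well plates and compounds tested at five concentrations. At the GI50, growth is halved. TGI: total growth inhibition.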 The source made the active and inactive calls. Cut-off read from the data, not from the text of the source: active = GI50 below about 0.43 µM; inactive = the rest. Where a SMILES comes first, the peptide text is derived from it. Side-chain parts run from the residue outwards. The star is where a group is joined. Cbz = O=C(OCc1ccccc1)*; Boc = CC(C)(C)OC(=O)*

`CC1(C)CN=CC(C)(OCc2ccccc2)C(=O)NC(C)(C)CN=CC(C)(OCc2ccccc2)C(=O)N1` (stereo unspecified): the TGI in assay [1], in assay [2], in assay [3], in assay [4] and in assay [5] was more than 10 µM in each case.
Turning to `COc1ccc(C2=NNC(c3cc4cc(Br)ccc4nc3Cl)C2)cc1` (stereo unspecified), the TGI in assay [2], in assay [3], in assay [4] and in assay [5] was more than 25 µM in each case.
In the case of `CC1=NN(C(=O)Cc2ccccc2)C(=O)/C1=C\c1ccccc1O`, the TGI in assay [1], in assay [2], in assay [3], in assay [6], in assay [4] and in assay [5] was more than 100 µM throughout.
Regarding `CC1=CC(=O)/C(=C/n2c(=S)[nH]c3cc(C)ccc32)C(=O)O1`, the TGI in assay [1], in assay [7], in assay [2], in assay [3], in assay [6] and in assay [4] was more than 100 µM in each case.
`C=CCOCn1ccc(N)nc1=O`: the TGI in assay [1], in assay [2], in assay [6], in assay [4] and in assay [5] was more than 100 µM each time.
As for `O=C1CCC2(c3ccc(Cl)cc3)Nc3ncncc3N12` (stereo unspecified), the TGI in assay [7], in assay [3], in assay [6] and in assay [4] was more than 10 µM each time.
Regarding `OC1(c2ccc(Cl)cc2)c2c(c3ccccc3c3ccccc23)C2=NCCN21` (stereo unspecified), the TGI in assay [1] was 24.2 µM; in assay [7], 25.5 µM; in assay [2] it was 34.9 µM; in assay [3], 28.8 µM; in assay [4], 15.2 µM; in assay [5], more than 100 µM.
`NC1=Nc2ccccc2Sc2nc3ccccc3n21`: the TGI in assay [1] was more than 100 µM; in assay [7], more than 100 µM; in assay [3], more than 100 µM; in assay [6], more than 100 µM; in assay [4], 5.23 µM; in assay [5], more than 100 µM.
With `Cn1c(COC(=O)NC2CCCCC2)c(COC(=O)NC2CCCCC2)c2ccc3cc(C=O)ccc3c21`, the TGI in assay [7], in assay [3] and in assay [4] was more than 100 µM throughout.
For the compound `CO[C@]12CC(=O)C3(C(C[C@H]4CC5CC[C@H]6C[C@@H](OC(C)=O)CC[C@]6(OC(C)=O)C5C[C@@]43C)C1)C1C[C@H]3[C@@H]4CC[C@H]5C[C@@H](OC(C)=O)CC[C@]5(OC(C)=O)[C@H]4CC[C@]3(C)C12` (stereo partly specified), the TGI in assay [1], in assay [7], in assay [2], in assay [3], in assay [4] and in assay [5] was more than 100 µM each time.
With `Cc1c2oc3c(C)cc(F)c(C(=O)NC4C(=O)NC(C(C)C)C(=O)N5CCCC5C(=O)N(C)CC(=O)N(C)C(C(C)C)C(=O)OC4C)c3nc-2c(C(=O)NC2C(=O)NC(C(C)C)C(=O)N3CCCC3C(=O)N(C)CC(=O)N(C)C(C(C)C)C(=O)OC2C)c(N)c1=O` (stereo unspecified), in assay [7], the GI50 is 5.62 µM. Further, the TGI in assay [7] was 91 µM; in assay [2], 1.31 µM and 0.988 µM; in assay [3], 32.5 µM; in assay [6], 1.66 µM and 1.95 µM; in assay [4], 78.5 µM.
On to `Cc1c2cccc-2c(OCCOC(=O)n2ccnc2)cc2c1[nH]c1ccccc12`, for which the TGI was determined as 28.4 µM in assay [1]; 4.63 µM in assay [2]; 7.27 µM in assay [3]; 4.66 µM in assay [6]; 19.9 µM in assay [4]; 9.9 µM in assay [5].
Regarding `O=Cc1c(Br)[nH]c2ccccc12`, the concentration for total growth inhibition (TGI) in assay [1], in assay [7], in assay [2], in assay [6] and in assay [5] was more than 100 µM throughout.
Consider `COc1cc(S(=O)(=O)Nc2ccc(-c3csc(N4C(=O)C(C)SC4c4ccccc4)n3)cc2)ccc1Cl` (stereo unspecified), for which the total growth inhibition concentration (TGI) in assay [7], in assay [2], in assay [3], in assay [6], in assay [4] and in assay [5] was more than 100 µM throughout.
`COc1ccc(N2C(=O)C3c4[nH]c5ccccc5c4C4c5ccccc5CC4C3C2=O)cc1` (stereo unspecified): the TGI in assay [1], in assay [7], in assay [2], in assay [3], in assay [6] and in assay [4] was more than 100 µM in each case.
For `COc1cc2c(c(OC)c1OC)-c1ccc(SC)c(=O)cc1[C@@H](NC(=O)c1ccc([N+](=O)[O-])cc1)CC2`, the TGI was more than 100 µM in assay [2]; 25 µM and > 100 µM in assay [3]; 15.6 µM and 30.7 µM in assay [4]; 25 µM and > 100 µM in assay [5].
In the case of `CCn1c(=O)c2c3ccc(OC)cc3[nH]c2c2ccc(OC)cc21`, the TGI in assay [1], in assay [7], in assay [2], in assay [3], in assay [6] and in assay [4] was more than 100 µM throughout.
Consider `O=C(CSCC(=O)N/N=C\c1ccccc1F)N/N=C\c1ccccc1F`, for which the TGI is 63.1 µM in assay [7]; more than 100 µM in assay [2]; more than 100 µM in assay [3]; more than 100 µM in assay [6]; more than 100 µM in assay [4]; more than 100 µM in assay [5].
As for `C[N+](C)(C)CC(=O)N/N=C(/Cc1nc2ccc([N+](=O)[O-])cc2[nH]c1=O)C(=O)Nc1cc(C(F)(F)F)ccc1Cl`, the TGI in assay [1], in assay [2], in assay [3], in assay [6], in assay [4] and in assay [5] was more than 100 µM each time.
For the compound `O=NN1C(c2ccccc2)CCCC1c1ccccc1` (stereo unspecified), the TGI is more than 100 µM in assay [1]; more than 100 µM in assay [7]; more than 100 µM in assay [2]; more than 81.2 µM in assay [6]; more than 100 µM in assay [5].
As for `O=C1CC(C(COCc2ccccc2)OCc2ccccc2)CC(=O)N1` (stereo unspecified), the TGI in assay [1], in assay [2], in assay [3], in assay [6], in assay [4] and in assay [5] was more than 100 µM throughout.
In the case of `O=c1[nH]c(=O)n(COCc2ccccc2)c2ccccc12`, the TGI in assay [7] is 92.7 µM; in assay [2], more than 100 µM; in assay [3] it was more than 100 µM; in assay [4], more than 100 µM.
In the case of `N#CCc1nc2cc(C(F)(F)F)ccc2s1`, the TGI in assay [1] is more than 100 µM; in assay [7], more than 100 µM; in assay [3] it was more than 100 µM; in assay [6] it was 34.5 µM; in assay [4], more than 100 µM; in assay [5] it was more than 100 µM.
Turning to `O=C(c1ccccc1O)c1cc(-c2ncc3c(=O)c4ccccc4oc3n2)c(-c2ccccc2O)[nH]c1=O`, the TGI in assay [1] was 52.6 µM; in assay [7], more than 87.6 µM; in assay [2] it was 65.3 µM; in assay [6], 61.5 µM; in assay [5], 60.4 µM.
For `O=C(NNS(=O)(=O)c1ccccc1)c1csc(NC(=S)NC2CCCCC2)n1`, the TGI is more than 100 µM in assay [1]; more than 100 µM in assay [7]; 93.6 µM in assay [3]; 82.7 µM in assay [6]; 32.4 µM in assay [4]; more than 100 µM in assay [5].
On to `COc1ccc(CCCN2c3ccccc3Sc3ccccc32)cc1`, for which the TGI in assay [1], in assay [2], in assay [3], in assay [6], in assay [4] and in assay [5] was more than 100 µM each time.
`Cc1ccc(C#CS(=O)(=O)C(F)(F)F)cc1`: the TGI in assay [1], in assay [7], in assay [2], in assay [6] and in assay [5] was more than 100 µM in each case.
As for `CC(=O)c1[nH]c(Nc2ccc(C)cc2)c(C(=S)Nc2ccccc2)c1N`, the TGI came out at 42.1 µM in assay [1]; 89.4 µM in assay [7]; 45.3 µM in assay [2]; 36.2 µM in assay [3]; 32.5 µM in assay [6]; 34.3 µM in assay [4].
For the compound `COc1ccc(C2=C(Cl)c3cc(OC)c(OC)cc3C2)cc1OC`, the TGI in assay [1], in assay [2], in assay [3], in assay [6], in assay [4] and in assay [5] was more than 100 µM throughout.
With `CC(C)C1=C(Cc2ccccc2)C(=O)O/C1=C\c1ccc(O)c(Cl)c1`, the TGI was 31.7 µM in assay [1]; 30.9 µM in assay [2]; 28.1 µM in assay [3]; 30.5 µM in assay [4]; 28.1 µM in assay [5].
For `CC(C)(C)OC(=O)NC(CCCCNC(=O)CNC(=O)OCc1ccccc1)C(=O)NC(CCCCNC(=O)CNC(=O)OCc1ccccc1)C(=O)NC(CCCCNC(=O)CNC(=O)OCc1ccccc1)C(=O)NC(CCCCNC(=O)CNC(=O)OCc1ccccc1)C(=O)O` (stereo unspecified) (Boc-K([Gly-Cbz])K([Gly-Cbz])K([Gly-Cbz])K([Gly-Cbz])-OH; configuration not given here), the TGI in assay [1], in assay [2], in assay [3], in assay [6], in assay [4] and in assay [5] was more than 100 µM each time.
In the case of `COc1cc(/C(=C2/O[C@@H]([C@H]3COC(C)(C)O3)[C@H]3OC(C)(C)O[C@@H]23)c2ccc3c(c2)OCO3)cc(OC)c1OC`, the GI50 in assay [1] is more than 25 µM; in assay [7], more than 25 µM; in assay [2] it was 16.1 µM; in assay [3], 4.68 µM; in assay [6], more than 25 µM; in assay [5], more than 25 µM. In addition, the TGI in assay [1], in assay [7], in assay [2], in assay [3], in assay [6] and in assay [5] was more than 25 µM each time.
On to `CC1CCOc2ccc(cc2)C=Nc2ccc(cc2)-c2ccc(cc2)N=Cc2ccc(cc2)OCC1` (stereo unspecified), for which the TGI in assay [7], in assay [2], in assay [3], in assay [6], in assay [4] and in assay [5] was more than 100 µM in each case.
`COc1ccc([C@H]2c3cc4c(cc3OC(O)(CO)[C@H]2C(=O)O)OCO4)c(OC)c1` (stereo partly specified) (tested in a mixture with another compound): the TGI in assay [1] is more than 100 µM; in assay [2], 95.8 µM; in assay [3], more than 100 µM; in assay [5], more than 100 µM.
Turning to `O=P(O)(O)CN1CCNCCN(CP(=O)(O)O)CCN(CP(=O)(O)O)CCNCC1`, the result in assay [1], in assay [7], in assay [2], in assay [3], in assay [6] and in assay [4] was inactive.
For `CC(=O)OCC1OC(n2c(N)c(C#N)c(-c3cccc(Cl)c3)c(C#N)c2=S)C(OC(C)=O)C(OC(C)=O)C1OC(C)=O` (stereo unspecified), the TGI in assay [1] is more than 100 µM; in assay [7] it was 96.4 µM; in assay [2] it was more than 100 µM; in assay [3], more than 100 µM; in assay [4], 60.5 µM; in assay [5] it was 39.7 µM.
With `CN(/N=C/c1ccc(Cl)cc1)C1=NCCCCN1`, the TGI in assay [1], in assay [7], in assay [3], in assay [6], in assay [4] and in assay [5] was more than 100 µM throughout.
For the compound `COc1cc2c(c(OC)c1OC)-c1ccc(SC)c(=O)cc1[C@@H](NCc1cccc([N+](=O)[O-])c1)CC2`, the TGI in assay [3] was more than 100 µM; in assay [4] it was 34.4 µM.
Consider `C1=CN2C[n+]3ccc4ccccc4c3N=C2c2ccccc21`, for which the TGI was 32.5 µM in assay [1]; more than 100 µM in assay [7]; 70.5 µM in assay [3]; 5.09 µM in assay [6]; 10.3 µM in assay [4]; 11.8 µM in assay [5].
